From PMC9621234, “Ligand-based discovery of coronavirus main protease inhibitors using MACAW molecular embeddings” (Journal of Enzyme Inhibition and Medicinal Chemistry, 2022)
Read-outs that look alike come from different tables or passages of the source.

Experiments:
[1] = system: Human coronavirus hCoV-229; format: cell-based
MRC-5 cells = assay: Cytotoxicity, MTT test; conditions: 72 h, 100 to 3.12 μg/mL
SARS-CoV-2 M^pro = molecular target: T1, SARS-CoV-2 M^pro (Severe acute respiratory syndrome coronavirus 2, UniProt P0DTD1); assay: biochemical; conditions: for change of inhibition results upon addition of detergent: 0.1% Triton X-100, aggregation control; for inhibition curve, in words: 0.01-20 μM
T1 construct: in vitro FRET-based assay using recombinant M^pro; purchased Beyotime P0315M

HCoV 229E = assay: Viral titres (TCID50) in MRC-5 cells; conditions: MRC-5, 72 h, different concentrations
[2] = Figure 2(l), Trial 1, read-out: IC50
[3] = Figure 2(l), Trial 2, read-out: IC50
[4] = Figure 2(l), With Triton-X100, read-out: IC50
[5] = Figure 2 panels a-k, dose-response curve, mean ± SEM, n = 3, read-out: IC50
[6] = Figure 4, With Triton-X100 (0.1%), unit inferred, read-out: IC50
[7] = Figure 4, Without Triton-X100, unit inferred, read-out: IC50
[8] = IC50, Figure 2 panels a-k, dose-response curve, mean ± SEM, n = 3

`c1ccc2sc(SSc3nc4ccccc4s3)nc2c1` [Compound 1] was tested, and the “effect on cytopathogenic effect (CPE) of the virus” value (“effect on cytopathogenic effect” below) [1] was “some reduction in CPE”, the “effect on cytopathogenic effect” value ([1]; high multiplicity of infection (high viral load), MRC-5, 72 h) was “no inhibitory effect” and the “cellular toxicity (cell viability)” value (MRC-5 cells) was “minimal toxicity”. The “change of inhibition results upon addition of detergent” value (SARS-CoV-2 M^pro) was “did not change significantly”, the IC50 (SARS-CoV-2 M^pro; [2]) was 714 nM and the IC50 (SARS-CoV-2 M^pro; [3]) was 768 nM. For the same molecule, the IC50 (SARS-CoV-2 M^pro; [4]) was 622 nM, the IC50 (SARS-CoV-2 M^pro; [5]) was 714 ± 182 nM and the IC50 (SARS-CoV-2 M^pro; [6]) was 625 ± 102 nM. It also gave an IC50 (SARS-CoV-2 M^pro; [7]) of 786 ± 151 nM and an IC50 (SARS-CoV-2 M^pro; read-out: IC50) of 710 nM.

For `Cc1ccc(-c2oc3ccccc3c(=O)c2O)cc1` [Compound 2], the “inhibition curve, in words” value (SARS-CoV-2 M^pro) was “atypical inhibition results”.

For `Cc1ccc(-n2c(/C=C/c3ccc([N+](=O)[O-])cc3)nc3ccccc3c2=O)cc1` [Compound 3], the IC50 (SARS-CoV-2 M^pro; [5]) was 38300 ± 18300 nM.

For `Nc1nnc(Sc2ccc([N+](=O)[O-])cn2)s1` [Compound 4], the IC50 (SARS-CoV-2 M^pro; [8]) was 6220 ± 1790 nM.

`O=C1C2C3C=CC(C3)C2C(=O)C2C3C=CC(C3)C12` (centres unmarked) [Compound 5] gave an IC50 (SARS-CoV-2 M^pro; [8]) of 9790 ± 1450 nM.

With `c1ccc(Sc2ncnc3c2oc2ccccc23)cc1` [Compound 6] the IC50 (SARS-CoV-2 M^pro; [8]) was 4980 ± 1280 nM.

For `O=c1sc2ccccc2n1Cc1ccccc1` [Compound 7, 3-benzyl-1,3-benzothiazol-2-one], the “effect on cytopathogenic effect” value ([1]; across all the viral doses tested, MRC-5, 72 h) was “very significant reduction in CPE”, the “cellular toxicity (cell viability)” value (MRC-5 cells) was “minimal toxicity” and the “inhibition curve, in words” value (SARS-CoV-2 M^pro) was “atypical inhibition results”. The “change of inhibition results upon addition of detergent” value (SARS-CoV-2 M^pro) was “did not change significantly”, the IC50 (SARS-CoV-2 M^pro; IC50, Figure 2(l), Trial 1) was 174 nM and the IC50 (SARS-CoV-2 M^pro; IC50, Figure 2(l), Trial 2) was 179 nM. For the same molecule, the IC50 (SARS-CoV-2 M^pro; IC50, Figure 2(l), With Triton-X100) was 241 nM, the “potency, in words” value (SARS-CoV-2 M^pro; at low concentrations, fluorescent signal increased at high compound concentrations) was “highly potent” and the “effect on viral titres (TCID50)” value (HCoV 229E) was “substantial reduction in the viral load”.

With `[O-][n+]1ccccc1SSc1cccc[n+]1[O-]` [Compound 8, dipyrithione] the “cellular toxicity (cell viability)” value (MRC-5 cells) was “limited toxicity”, the “change of inhibition results upon addition of detergent” value (SARS-CoV-2 M^pro) was “did not change significantly” and the IC50 (SARS-CoV-2 M^pro; [2]) was 172 nM. The IC50 (SARS-CoV-2 M^pro; [3]) was 171 nM, the IC50 (SARS-CoV-2 M^pro; [4]) was 266 nM and the IC50 (SARS-CoV-2 M^pro; [5]) was 172 ± 25 nM. It also gave an IC50 (SARS-CoV-2 M^pro; [6]) of 285 ± 38 nM, an IC50 (SARS-CoV-2 M^pro; [7]) of 173 ± 23 nM and an IC50 (SARS-CoV-2 M^pro; read-out: IC50) of 180 nM.

With `Nc1nnc(Sc2ncc([N+](=O)[O-])s2)s1` [Compound 9, halicin] the “cellular toxicity (cell viability)” value (MRC-5 cells) was “toxic”, the “change of inhibition results upon addition of detergent” value (SARS-CoV-2 M^pro) was “did not change significantly” and the IC50 (SARS-CoV-2 M^pro; IC50) was 420 nM. It also gave an IC50 (SARS-CoV-2 M^pro; IC50, Figure 2(l), Trial 1) of 420 nM, an IC50 (SARS-CoV-2 M^pro; IC50, Figure 2(l), Trial 2) of 419 nM and an IC50 (SARS-CoV-2 M^pro; [8]) of 420 ± 49 nM. For the same molecule, the IC50 (SARS-CoV-2 M^pro; IC50, Figure 4, With Triton-X100 (0.1%), unit inferred) was 461 ± 81 nM.
